Data set [1] deals with Enterococcus faecalis. The experiment in a line: Antibacterial activity against Enterococcus faecalis ATCC 29212 = CCM 4224 assessed as inhibition of bacterial growth incubated for 24 hrs by microdilution assay. The format is functional. In general terms: In broth dilution the organism is exposed to a series of concentrations in liquid medium.
Data set [2] concerns Staphylococcus aureus. The data set is described as follows: Antibacterial activity against Staphylococcus aureus ATCC 29213 = CCM 4223 assessed as inhibition of bacterial growth incubated for 24 hrs by microdilution assay. The format is functional.
In data set [3] the test system is Staphylococcus aureus. The data set is described as follows: Antibacterial activity against Staphylococcus aureus ATCC 29213 = CCM 4223 assessed as inhibition of bacterial growth incubated for 24 hrs in presence of BSA by microdilution assay. The format is functional.
Data set [4] has as its system Escherichia coli. The experiment in a line: Antibacterial activity against Escherichia coli ATCC 25922 = CCM 3954 assessed as inhibition of bacterial growth incubated for 24 hrs by microdilution assay. The class given is functional.
The test system of data set [5] is Escherichia coli. The experiment in a line: Antibacterial activity against Escherichia coli ATCC 25922 = CCM 3954 assessed as inhibition of bacterial growth incubated for 24 hrs in presence of BSA by microdilution assay. The format is functional.
Data set [6] has as its system Pseudomonas aeruginosa. The experiment in a line: Antibacterial activity against Pseudomonas aeruginosa ATCC 27853 = CCM 3955 assessed as inhibition of bacterial growth incubated for 24 hrs by microdilution assay. The format is functional.
Data set [7] can be described thus: Hemolytic activity in human RBC assessed as haemoglobin release measured after 3 hr. The class given is toxicity, cell-based, Erythrocyte. The note with it: red blood cells (erythrocytes).
The nature of data set [8]: Gradient chromatographic hydrophobicity index of the compound at pH 3.7 by HPLC analysis. The format is ADME.
The test system of data set [9] is Staphylococcus epidermidis. The data set is described as follows: Antibacterial activity against Staphylococcus epidermidis CCM 7221 assessed as inhibition of bacterial growth incubated for 24 hrs by microdilution assay. The class given is functional.
For data set [10], the system named is Staphylococcus aureus. The experiment in a line: Antibacterial activity against methicillin resistant Staphylococcus aureus 4591/A assessed as reduction in microbial growth incubated for 24 hrs by microdilution assay. The class given is functional.
Data set [11] has as its system Escherichia coli. The experiment in a line: Antibacterial activity against multidrug-resistant Escherichia coli CE5556 expressing CTX-M-15 assessed as reduction in microbial growth incubated for 24 hrs by microdilution assay. The format is functional.
Data set [12] deals with Enterococcus faecium. The experiment in a line: Antibacterial activity against vancomycin resistant Enterococcus faecium 419/ANA assessed as reduction in microbial growth incubated for 24 hrs by microdilution assay. The class given is functional.
For data set [13], the system named is Pseudomonas aeruginosa. The data set is described as follows: Antibacterial activity against multidrug-resistant Pseudomonas aeruginosa assessed as reduction in microbial growth incubated for 24 hrs by microdilution assay. The format is functional.
Data set [14] in a line: Cytotoxicity against human HepG2 cells assessed as reduction in cell viability. The class given is toxicity, cell-based.

Molecules are shown by their SMILES.

For `CCCCCCOP(=O)(CCN(CCCN)CCCN)OCCCCCCCCCCOP(=O)(CCN(CCCN)CCCN)OCCCCCC.Cl.Cl.Cl.Cl.Cl.Cl` (stereo not given), the MIC (in general, the least concentration at which growth counts as inhibited) in [1] amounted to 4 µg/mL; in [2], 0.5 µg/mL; in data set [3], 3 µg/mL; in data set [4] it was 0.5 µg/mL; in data set [5] it was 1 µg/mL; in data set [6] it was 4 µg/mL. Besides, the MIC in data set [9] stood at 0.5 µg/mL; in data set [10], 1 µg/mL; in [11] it was 8 µg/mL; in data set [12], 32 µg/mL; in data set [13] it was 8 µg/mL. Moreover, in [7], the HC50 (usually the concentration giving 50% haemolysis) at 3 h turned out to be 743 µg/mL. This compound also showed a CHI in [8] of 34.8. Further, the CC50 – broadly, the concentration giving 50% cytotoxicity – in [14] was 17.5 µM.

`CCCCCCOP(=O)(CCN(CCCN)CCCN)OCCCCCCCCOP(=O)(CCN(CCCN)CCCN)OCCCCCC.Cl.Cl.Cl.Cl.Cl.Cl` (stereo not given): the MIC in [1] was 16 µg/mL; in data set [2], 1 µg/mL; in data set [3] it was 2 µg/mL; in [4], 1 µg/mL; in data set [5], 8 µg/mL; in [6], 16 µg/mL. Besides, the MIC in data set [9] was 0.5 µg/mL; in [10], 2 µg/mL; in data set [11], 8 µg/mL; in [12] it was greater than 128 µg/mL; in data set [13], 64 µg/mL. In data set [7], the HC50 at 3 h was greater than 500 µg/mL. In data set [8], this compound yielded a CHI of 31.4. The CC50 in [14] is greater than 99 µM.

As to `CC(C)COP(=O)(CCN(CCCN)CCCN)OCCCCCCCCCCCCOP(=O)(CCN(CCCN)CCCN)OCC(C)C.Cl.Cl.Cl.Cl.Cl.Cl` (stereo not given), the MIC was 32 µg/mL in [1]; 4 µg/mL in [2]; 16 µg/mL in [3]; 128 µg/mL in [4]; greater than 128 µg/mL in [5]; 32 µg/mL in data set [6]. Also, the MIC in data set [9] was 1 µg/mL; in data set [10], 4 µg/mL; in data set [11] it was greater than 128 µg/mL; in [12], 128 µg/mL; in data set [13], 16 µg/mL. In addition, the HC50 at 3 h in [7] was determined as 170 µg/mL. The CHI in data set [8] is 31.4. Moreover, the CC50 in data set [14] stood at 56.2 µM.

`CCC/C=C\CCOP(=O)(CCN(CCCN)CCCN)OCCCCCCOP(=O)(CCN(CCCN)CCCN)OCC/C=C\CCC.Cl.Cl.Cl.Cl.Cl.Cl` (stereo not given): the MIC in data set [1] was greater than 128 µg/mL; in data set [2], 4 µg/mL; in data set [3] it was 16 µg/mL; in data set [4], 16 µg/mL; in data set [5] it was 32 µg/mL; in [6], 128 µg/mL. For the same compound, the MIC was 1 µg/mL in data set [9]; 4 µg/mL in [10]; 32 µg/mL in [11]; greater than 128 µg/mL in data set [12]; 128 µg/mL in data set [13]. In data set [7], the HC50 at 3 h is greater than 200 µg/mL. This compound also showed a CHI in data set [8] of 29.6. Besides, in [14], the CC50 was greater than 99 µM.

Consider `CCCCC/C=C\CCOP(=O)(CCN(CCCN)CCCN)OCCCCCCOP(=O)(CCN(CCCN)CCCN)OCC/C=C\CCCCC.Cl.Cl.Cl.Cl.Cl.Cl` (stereo not given), for which the MIC amounted to 2 µg/mL in [1]; 0.5 µg/mL in data set [2]; 2 µg/mL in data set [3]; 1 µg/mL in [4]; 0.5 µg/mL in [5]; 2 µg/mL in [6]. In addition, the MIC in [9] is 0.5 µg/mL; in data set [10], 1 µg/mL; in data set [11], 1 µg/mL; in data set [12], 8 µg/mL; in [13] it was 2 µg/mL. Besides, the HC50 at 3 h in data set [7] was 262 µg/mL. Further, in [8], the CHI stood at 37.5. Further, in data set [14], the CC50 was found to be 30.8 µM.

Consider `Cl.Cl.Cl.Cl.Cl.Cl.NCCCN(CCCN)CCP(=O)(OCCCOP(=O)(CCN(CCCN)CCCN)OCC12CC3CC(CC(C3)C1)C2)OCC12CC3CC(CC(C3)C1)C2` (stereo not given), for which the MIC in data set [1] was determined as 8 µg/mL; in data set [2], 4 µg/mL; in data set [3], 4 µg/mL; in data set [4], 8 µg/mL; in data set [5], 8 µg/mL; in data set [6] it was 64 µg/mL. The minimum inhibitory concentration (MIC) in [9] stood at 2 µg/mL; in data set [10] it was 4 µg/mL; in data set [11], 16 µg/mL; in [12], 64 µg/mL; in [13] it was 16 µg/mL. The HC50 at 3 h in [7] was greater than 500 µg/mL. In [8], this compound yielded a CHI of 32.6. In addition, the CC50 in data set [14] is greater than 99 µM.

For the compound `CCCC/C=C\CCOP(=O)(CCN(CCCN)CCCN)OCCCCCCOP(=O)(CCN(CCCN)CCCN)OCC/C=C\CCCC.Cl.Cl.Cl.Cl.Cl.Cl` (stereo not given), the minimal inhibitory concentration (MIC) in data set [1] is 16 µg/mL; in [2] it was 1 µg/mL; in data set [3] it was 4 µg/mL; in data set [4], 2 µg/mL; in data set [5], 4 µg/mL; in data set [6], 16 µg/mL. The MIC in [9] worked out at 0.5 µg/mL; in [10], 1 µg/mL; in [11] it was 2 µg/mL; in data set [12] it was 64 µg/mL; in data set [13], 16 µg/mL. Moreover, the HC50 at 3 h in data set [7] was 34.8 µg/mL. This compound also showed a CHI in data set [8] of 33.8. In addition, the CC50 in data set [14] worked out at 92.5 µM.

For `CC/C=C\CCCOP(=O)(CCN(CCCN)CCCN)OCCCCCOP(=O)(CCN(CCCN)CCCN)OCCC/C=C\CC.Cl.Cl.Cl.Cl.Cl.Cl` (stereo not given), the MIC in [1] is greater than 128 µg/mL; in data set [2], 16 µg/mL; in data set [3], 64 µg/mL; in data set [4], 128 µg/mL; in data set [5], greater than 128 µg/mL; in [6], greater than 128 µg/mL. The MIC in data set [9] is 8 µg/mL; in data set [10], 32 µg/mL; in data set [11] it was greater than 128 µg/mL; in [12], greater than 128 µg/mL; in data set [13], greater than 128 µg/mL. The HC50 at 3 h in data set [7] was greater than 200 µg/mL. The CHI in data set [8] is 27.7.

On to `CCCCC/C=C\CCOP(=O)(CCN(CCCNC(=N)N)CCCNC(=N)N)OCCCCCOP(=O)(CCN(CCCNC(=N)N)CCCNC(=N)N)OCC/C=C\CCCCC.Cl.Cl.Cl.Cl.Cl.Cl` (stereo not given), for which the MIC in data set [1] turned out to be 4 µg/mL; in [2], 1 µg/mL; in data set [3], 1 µg/mL; in [4], 1 µg/mL; in data set [5], 1 µg/mL; in [6], 8 µg/mL. Further, the MIC was 1 µg/mL in [9]; 1 µg/mL in [10]; 1 µg/mL in data set [11]; 8 µg/mL in data set [12]; 8 µg/mL in data set [13]. Also, the HC50 at 3 h in data set [7] came to 121 µg/mL. The same compound yielded a CHI in data set [8] of 36.4.

For the compound `CCCCOP(=O)(CCN(CCCN)CCCN)OCCCCCCCCOP(=O)(CCN(CCCN)CCCN)OCCCC.Cl.Cl.Cl.Cl.Cl.Cl` (stereo not given), the MIC was greater than 128 µg/mL in [1]; greater than 128 µg/mL in data set [2]; greater than 128 µg/mL in data set [3]; 128 µg/mL in data set [4]; greater than 128 µg/mL in [5]; greater than 128 µg/mL in [6]. Moreover, the MIC in data set [9] was 64 µg/mL; in [10], greater than 128 µg/mL; in [11], greater than 128 µg/mL; in [12] it was greater than 128 µg/mL; in [13] it was greater than 128 µg/mL. Also, the concentration for 50% haemolysis (HC50) at 3 h in data set [7] was greater than 100 µg/mL. In addition, in [8], the CHI amounted to 11.

Turning to `CCCCCOP(=O)(CCN(CCCN)CCCN)OCCCCCCCCOP(=O)(CCN(CCCN)CCCN)OCCCCC.Cl.Cl.Cl.Cl.Cl.Cl` (stereo not given), the MIC is greater than 128 µg/mL in data set [1]; 16 µg/mL in [2]; 32 µg/mL in data set [3]; greater than 128 µg/mL in [4]; greater than 128 µg/mL in data set [5]; greater than 128 µg/mL in [6]. For the same compound, the MIC in data set [9] is 4 µg/mL; in data set [10], 8 µg/mL; in data set [11], greater than 128 µg/mL; in data set [12] it was greater than 128 µg/mL; in data set [13], 128 µg/mL. Moreover, in data set [7], the HC50 at 3 h was greater than 100 µg/mL. The compound also returned a CHI in [8] of 27.5.

These data come from ChEMBL document CHEMBL5120927, “LEGO-Lipophosphonoxins: A Novel Approach in Designing Membrane Targeting Antimicrobials” (J Med Chem, 2022).
